Patent publication US20140350273A1, “PEDIATRIC USES OF CABAZITAXEL” (AVENTIS PHARMA S.A., priority 2012, published 2014)
Like-named read-outs stand apart in the source and are kept apart here.

Test system: human rhabdomyosarcoma RH-30
Assay type: in vivo
Conditions: for Average body weight change in % per mouse at nadir / Drug death (Day of death) / Regressions Complete / Regressions Partial / Tumor free survivors at day 120 / day of nadir / Biological interpretation / ΔT/ΔC in % (day 27): 18
Procedure: This efficacy may be quantified, for example, as changes in tumor volume for each treated (T) and control (C) group, which are calculated for each animal and each day by subtracting the tumor volume on the day of first treatment (staging day) from the tumor volume on the specified observation day. This allows calculating the tumor growth inhibition: ΔT/ΔC=(median delta T/median delta C)×100. Individual tumor volume changes from baseline are thereafter analyzed by a non-parametric two-way ANOVA-TYPE (with factors: group and repeated days) followed by a post-hoc contrasts analysis, with Bonferroni-Holm adjustment for multiplicity, comparing all treated groups to the control group. […] A probability less than 5% (p<0.05) was considered as significant.
Based on the National Cancer Institute (NCl) standards, a ΔT/ΔC≦40% is the minimal level required to declare activity.
The tumor doubling time (in days; Td) was estimated from the plot of the log linear growth of the control group tumors in exponential growth (100 to 1000 mm^3 range) [T. H. Corbett et al., Cancer, 40: 2660-2680 (1977); F. M. Schabel et al., Cancer Drug Development, Part B, Methods in Cancer Research, 17: 3-51, New York, Academic Press Inc. (1979)].
This efficacy may also be quantified by the number of tumor regressions observed after therapy. Individual mice reporting a tumor volume ≦50% of the Day 0 measurement for two consecutive measurements over a seven day period were considered partial responders (PR). Individual mice lacking palpable tumors (<4×4 mm^2 for two consecutive measurements over a seven day period) were classified as complete responders (CR); a CR that persisted until study completion was considered a tumor-free survivor (TFS).
The animals subjected to the experiment are subcutaneously grafted unilaterally with approximately 30 mg of a tumor fragment on day 0. The animals are implanted with a human tumor xenografted in immunocompromized mice. Several days post tumor implantation, mice are randomized according to their body weight to the different groups of treatments and controls. The animals are observed every day. […] The groups are then weighed once or twice a week until the end of the trial.
The tumors are measured 1 to 5 times a week, depending on the tumor doubling time, until the tumor reaches approximately 1,000 mm^3, or until the animal dies (if this occurs before the tumor reaches 1,000 mm^3). The animals are necropsied immediately after euthanasia or death.
The selected tumor model was a human rhabdomyosarcoma RH-30, xenografted in SCID mice [Douglass E C, et al. Cytogenet Cell Genet. 1987; 45(3-4):14855.].
Treatment solutions were prepared first by mixing 1 volume of ethanolic stock solution and 1 volume of polysorbate 80, then by adding 18 volumes of glucose 5% in water.

[1] = 3.5 mg/kg per injection (total 7.0) IV days 14
[2] = 3.5 mg/kg per injection (total 7.0) IV days 14, listed as DOCETAXEL
[3] = 3.5 mg/kg per injection (total 7.0) IV days 14, listed as docetaxel
[4] = 5.6 mg/kg per injection (total 11.2) IV days 14
[5] = 5.6 mg/kg per injection (total 11.2) IV days 14, listed as DOCETAXEL
[6] = 9.0 mg/kg per injection (total 18) IV days 14
[7] = 9.0 mg/kg per injection (total 18) IV days 14, listed as DOCETAXEL
[8] = 14.5 mg/kg per injection (total 29) IV days 14
[9] = 14.5 mg/kg per injection (total 29) IV days 14, listed as DOCETAXEL
[10] = 14.5 mg/kg per injection (total 29) IV days 14, listed as docetaxel

For `CC(=O)O[C@@]12CO[C@@H]1C[C@H](O)[C@@]1(C)C(=O)[C@H](O)C3=C(C)[C@@H](OC(=O)[C@H](O)[C@@H](NC(=O)OC(C)(C)C)c4ccccc4)C[C@@](O)([C@@H](OC(=O)c4ccccc4)[C@H]21)C3(C)C` [Docetaxel, docetaxel], the “Average body weight change in % per mouse at nadir” value [1] was −1.8%, the “Drug death (Day of death)” value [1] was 0/6 and the “Regressions Complete” value [1] was 0/6. For the same compound, the “Regressions Partial” value [1] was 0/6, the “Tumor free survivors at day 120” value [1] was 0/6 and the day of nadir [1] was “(15) day”. For the same compound, the Biological interpretation [2] was “Inactive”, the “ΔT/ΔC in % (day 27)” value [2] was 77% and the Biological interpretation [3] was “inactive”. The “ΔT/ΔC in % (day 27)” value [3] was greater than 40%, the “Tumor volume changes from baseline: Median (nMad)” value (“Tumor volume changes from baseline” for short) (3.5 mg/kg, day 19) was 477 and the “Tumor volume changes from baseline” value (3.5 mg/kg, day 20) was 475. The “Tumor volume changes from baseline” value (3.5 mg/kg, day 22) was 495.5, the “Tumor volume changes from baseline” value (3.5 mg/kg, day 25) was 621.5 and the “Tumor volume changes from baseline” value (3.5 mg/kg, day 27) was 736. For the same compound, the “Tumor volume changes from baseline” value (3.5 mg/kg, day 29) was 905.5, the “Average body weight change in % per mouse at nadir” value [4] was −12.1% and the “Drug death (Day of death)” value [4] was 0/6. For the same compound, the “Regressions Complete” value [4] was 0/6, the “Regressions Partial” value [4] was 4/6 and the “Tumor free survivors at day 120” value [4] was 0/6. For the same compound, the day of nadir [4] was “(25) day”, the Biological interpretation [5] was “Highly” and the “ΔT/ΔC in % (day 27)” value [5] was less than 0%. For the same compound, the Biological interpretation (5.6 mg/kg per injection (total 11.2) IV days 14, listed as docetaxel) was “highly active”, the “Tumor volume changes from baseline” value (5.6 mg/kg, day 18) was 218 (84.5) and the “Tumor volume changes from baseline” value (5.6 mg/kg, day 19) was 289 (57.1). For the same compound, the “Tumor volume changes from baseline” value (5.6 mg/kg, day 20) was 409.5, the “Tumor volume changes from baseline” value (5.6 mg/kg, day 22) was 405.5 and the “Tumor volume changes from baseline” value (5.6 mg/kg, day 25) was −30.5. The “Tumor volume changes from baseline” value (5.6 mg/kg, day 29) was −47 (89.7), the “Tumor volume changes from baseline” value (5.6 mg/kg, day 33) was 67 (262.4) and the “Tumor volume changes from baseline” value (5.6 mg/kg, day 39) was 454.5. For the same compound, the “Tumor volume changes from baseline” value (5.6 mg/kg, day 41) was 712, the “Tumor volume changes from baseline” value (5.6 mg/kg, day 43) was 1039.5 and the “Tumor volume changes from baseline” value (5.6 mg/kg, day 35) was 129. The “Average body weight change in % per mouse at nadir” value [6] was −11.2%, the “Drug death (Day of death)” value [6] was 0/6 and the “Regressions Complete” value [6] was 0/6. For the same compound, the “Regressions Partial” value [6] was 2/6, the “Tumor free survivors at day 120” value [6] was 0/6 and the day of nadir [6] was “(25) day”. The Biological interpretation [7] was “Highly”, the “ΔT/ΔC in % (day 27)” value [7] was less than 0% and the Biological interpretation (9.0 mg/kg per injection (total 18) IV days 14, listed as docetaxel) was “highly active”. For the same compound, the “Tumor volume changes from baseline” value (9 mg/kg, day 18) was 202 (98.6), the “Tumor volume changes from baseline” value (9 mg/kg, day 19) was 202 (71.9) and the “Tumor volume changes from baseline” value (9 mg/kg, day 20) was 325. For the same compound, the “Tumor volume changes from baseline” value (9 mg/kg, day 22) was 290.5, the “Tumor volume changes from baseline” value (9 mg/kg, day 25) was 115.5 and the “Tumor volume changes from baseline” value (9 mg/kg, day 29) was 119.5. For the same compound, the “Tumor volume changes from baseline” value (9 mg/kg, day 33) was 272, the “Tumor volume changes from baseline” value (9 mg/kg, day 39) was 676 and the “Tumor volume changes from baseline” value (9 mg/kg, day 41) was 904.5. The “Tumor volume changes from baseline” value (9 mg/kg, day 43) was 909, the “Average body weight change in % per mouse at nadir” value [8] was −17.6% and the “Drug death (Day of death)” value [8] was 0/6. For the same compound, the “Regressions Complete” value [8] was 3/6, the “Regressions Partial” value [8] was 5/6 and the day of nadir [8] was “(27) day”. For the same compound, the “ΔT/ΔC in % (day 27)” value [8] was 1%, the Biological interpretation [9] was “Very” and the “Tumor free survivors at day 120” value [9] was 0/6. For the same compound, the Biological interpretation [10] was “very active”, the “Tumor free survivors at day 120” value [10] was “without TFS” and the “Tumor volume changes from baseline” value (14.5 mg/kg, day 18) was 166.5. For the same compound, the “Tumor volume changes from baseline” value (14.5 mg/kg, day 19) was 195 (83), the “Tumor volume changes from baseline” value (14.5 mg/kg, day 25) was 154.5 and the “Tumor volume changes from baseline” value (14.5 mg/kg, day 27) was 13 (67.5). For the same compound, the “Tumor volume changes from baseline” value (14.5 mg/kg, day 29) was 87 (100.8), the “Tumor volume changes from baseline” value (14.5 mg/kg, day 33) was 17 (111.2) and the “Tumor volume changes from baseline” value (14.5 mg/kg, day 46) was 18.5. The “Tumor volume changes from baseline” value (14.5 mg/kg, day 50) was 485, the “Tumor volume changes from baseline” value (14.5 mg/kg, day 35) was −80 (63.8) and the “Tumor volume changes from baseline” value (14.5 mg/kg, day 39) was −112. The “Tumor volume changes from baseline” value (14.5 mg/kg, day 41) was −96 (78.6) and the “Tumor volume changes from baseline” value (14.5 mg/kg, day 43) was −72.5.
